The supplement of paper PMC10307832

What was measured:
Experiment in all cases: relative viability (nuclei count vs DMSO), 5 days (fraction); higher = more cells survive
[1] = compound: CN(c1ncccc1CNc1nc(Nc2ccc3c(c2)CC(=O)N3)ncc1C(F)(F)F)S(C)(=O)=O + C[C@@H](Oc1cc(-c2cnn(C3CCNCC3)c2)cnc1N)c1c(Cl)ccc(F)c1Cl [Crizotinib] (partner 1 µM)
In short: (§1)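 Relative viability was taken as the ratio of nuclei in treated wells to nuclei in vehicle wells. Lung cancer cell lines in 1536-well plates received compounds by pin tool one day after seeding, either one drug alone or a fixed anchor-drug dose plus five library-drug doses (not always all listed) in √10 steps. Nuclei were counted on 4× images after 5 days of treatment, and values are medians of duplicate plates.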

[2] = compound: CN(c1ncccc1CNc1nc(Nc2ccc3c(c2)CC(=O)N3)ncc1C(F)(F)F)S(C)(=O)=O + O=C(CCCCCCC(=O)Nc1ccccc1)NO [Vorinostat] (partner 1 µM)
In short: as §1

[3] = compound: CN(c1ncccc1CNc1nc(Nc2ccc3c(c2)CC(=O)N3)ncc1C(F)(F)F)S(C)(=O)=O + CS(=O)(=O)N1CCN(Cc2cc3nc(-c4cccc5[nH]ncc45)nc(N4CCOCC4)c3s2)CC1 [Pictilisib] (partner 1 µM)
In short: as §1

[4] = compound: CN(c1ncccc1CNc1nc(Nc2ccc3c(c2)CC(=O)N3)ncc1C(F)(F)F)S(C)(=O)=O + Cc1nc(Nc2ncc(C(=O)Nc3c(C)cccc3Cl)s2)cc(N2CCN(CCO)CC2)n1 [Dasatinib] (partner 0.075 µM)
In short: as §1

Cell Line | relative viability ([1]; first compound 0.01 µM) | relative viability ([1]; first compound 0.03162 µM) | relative viability ([1]; first compound 0.1 µM) | relative viability ([1]; first compound 0.3162 µM) | relative viability ([1]; first compound 1 µM) | relative viability ([2]; first compound 0.01 µM) | relative viability ([2]; first compound 0.03162 µM) | relative viability ([2]; first compound 0.1 µM) | relative viability ([2]; first compound 0.3162 µM) | relative viability ([2]; first compound 1 µM) | relative viability ([3]; first compound 0.01 µM) | relative viability ([3]; first compound 0.03162 µM) | relative viability ([3]; first compound 0.1 µM) | relative viability ([3]; first compound 0.3162 µM) | relative viability ([3]; first compound 1 µM) | relative viability ([4]; first compound 0.01 µM) | relative viability ([4]; first compound 0.03162 µM) | relative viability ([4]; first compound 0.1 µM) | relative viability ([4]; first compound 0.3162 µM) | relative viability ([4]; first compound 1 µM)
HCC-366 | 0.588 | 0.964 | 0.509 | 0.606 | 0.236 | 0.412 | 0.394 | 0.365 | 0.366 | 0.295 | 0.108 | 0.155 | 0.0871 | 0.197 | 0.19 | 0.541 | 0.904 | 0.598 | 0.644 | 0.687
HCC-827 | 0.893 | 0.905 | 1 | 0.893 | 0.851 | 0.923 | 0.861 | 0.806 | 0.954 | 0.783 | 0.878 | 1.08 | 1.09 | 1.15 | 1.07 | 0.191 | 0.185 | 0.115 | 0.107 | 0.109
HOP-62 | 0.926 | 1.04 | 0.962 | 0.809 | 1.04 | 0.759 | 0.769 | 0.574 | 0.732 | 0.596 | 0.784 | 0.899 | 0.793 | 0.853 | 0.643 | 0.616 | 0.512 | 0.5 | 0.301 | 0.301
IA-LM | 0.862 | 0.924 | 0.908 | 0.91 | 0.714 | 0.991 | 1.12 | 0.801 | 0.859 | 0.86 | 0.348 | 0.292 | 0.309 | 0.32 | 0.276 |  |  |  |  | 
LC-2-ad | 0.491 | 0.465 | 0.514 | 0.435 | 0.469 | 0.739 | 0.756 | 0.674 | 0.635 | 0.584 | 0.567 | 0.552 | 0.647 | 0.928 | 0.66 | 0.414 | 0.484 | 0.492 | 0.399 | 0.335
LCLC-97TM1 |  | 0.434 | 0.416 | 0.224 | 0.181 | 0.644 | 0.82 | 0.609 | 0.751 | 0.586 |  | 0.23 | 0.196 | 0.159 | 0.148 | 0.727 | 0.794 | 0.815 | 0.773 | 0.722
LCLC-103H | 1.14 | 1.08 | 1.11 | 0.906 | 0.895 | 0.852 | 0.725 | 0.732 | 0.771 | 0.769 | 0.558 | 0.561 | 0.6 | 0.536 | 0.577 | 0.47 | 0.36 | 0.481 | 0.442 | 0.332
LK-2 | 0.248 | 0.215 | 0.254 | 0.21 | 0.192 | 0.215 | 0.314 | 0.269 | 0.218 | 0.309 | 0.585 | 0.625 | 0.586 | 0.794 | 0.462 | 0.316 | 0.293 | 0.269 | 0.312 | 0.27
LOU-NH91 | 0.78 | 0.751 | 0.727 | 0.692 | 0.763 | 0.957 | 0.99 | 0.852 | 0.907 | 0.976 | 0.519 | 0.548 | 0.504 | 0.551 | 0.575 | 0.56 | 0.526 | 0.491 | 0.501 | 0.448
LU99A | 0.594 | 0.584 | 0.584 | 0.758 | 0.633 | 0.531 | 0.526 | 0.571 | 0.635 | 0.531 | 0.314 | 0.357 | 0.342 | 0.373 | 0.335 | 0.63 | 0.529 | 0.378 | 0.254 | 0.267
LXF-289 | 0.851 | 0.875 | 0.824 | 0.788 | 0.773 | 0.887 | 0.787 | 0.782 | 0.697 | 0.792 | 0.834 | 0.937 | 0.75 | 0.677 | 0.737 | 0.187 | 0.181 | 0.129 | 0.12 | 0.121
NCI-H1299 | 0.989 | 1.02 | 0.979 | 0.995 | 0.955 |  |  |  |  |  | 0.754 | 0.768 | 0.809 | 0.739 | 0.693 |  |  |  |  | 
NCI-H1395 |  |  |  |  |  | 0.792 | 0.698 | 0.725 | 0.659 | 0.898 | 0.569 | 0.655 | 0.605 | 0.668 | 0.661 | 0.461 | 0.374 | 0.359 | 0.414 | 0.386
NCI-H1563 | 0.855 | 0.83 | 0.91 | 0.864 | 0.799 |  |  |  |  |  | 0.602 | 0.629 | 0.657 | 0.722 | 0.662 | 0.458 | 0.422 | 0.429 | 0.372 | 0.385
NCI-H1648 |  |  |  |  |  | 0.336 | 0.493 | 0.471 | 0.292 | 0.413 |  |  |  |  |  |  |  |  |  | 
NCI-H1703 | 0.586 | 0.678 | 1.15 | 0.986 | 0.417 |  |  |  |  |  | 0.266 | 0.243 | 0.248 | 0.229 | 0.235 |  |  |  |  | 
NCI-H1792 | 0.936 | 1.01 | 0.971 | 0.938 | 0.961 |  |  |  |  |  | 0.263 | 0.281 | 0.323 | 0.306 | 0.332 | 0.803 | 0.841 | 0.623 | 0.581 | 0.55
NCI-H1793 |  |  |  |  |  | 0.866 | 0.724 | 0.785 | 0.699 | 0.713 | 0.285 | 0.393 | 0.208 | 0.319 | 0.265 | 0.375 | 0.336 | 0.409 | 0.311 | 0.353
NCI-H2342 |  |  |  |  |  | 0.772 | 0.848 | 0.696 | 0.646 | 0.803 |  |  |  |  |  | 0.32 | 0.306 | 0.306 | 0.286 | 0.297
SW 900 |  |  |  |  |  | 0.535 | 0.511 | 0.594 | 0.661 | 0.562 |  |  |  |  |  | 0.559 | 0.613 | 0.477 | 0.456 | 0.403
